Reference: ChEMBL document CHEMBL1201862, “PubChem BioAssay data set” (2004)
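Where inhibition never reached the appropriate level, the endpoint shown equals the highest concentration tested. Otherwise, values were interpolated linearly from a five-concentration, 48-hour dose response in 96-well plates. GI50: concentration for 50% inhibition of growth.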 Active and inactive are the calls of the source. No stated cut-off is given here; in the data, active = GI50 up to about 1.1 µM and inactive = higher.

Legend:
Test in all cases: NCI-60 cell line screen, 48 h
A498 = tested on: A498
A549 = tested on: A549
DU-145 = tested on: DU-145
HT-29 = tested on: HT-29
LOX IMVI = tested on: LOX IMVI
MOLT-4 = tested on: MOLT-4
Malme-3M = tested on: Malme-3M
NCI-H226 = tested on: NCI-H226
NCI-H460 = tested on: NCI-H460
PC-3 = tested on: PC-3
SF-268 = tested on: SF-268
SN12C = tested on: SN12C
SNB-19 = tested on: SNB-19
SNB-75 = tested on: SNB-75
SR = tested on: SR
SW-620 = tested on: SW-620
UACC-257 = tested on: UACC-257
HOP-92 = tested on: HOP-92
NCI-H522 = tested on: NCI-H522
T47D = tested on: T47D

Measured: GI50

O=C(C(=O)c1cc(-c2ccccc2)nc2ccc3ccccc3c12)c1ccccc1
inactive: A498 90.4 µM | A549 68.4 µM | DU-145 > 100 µM | HT-29 > 100 µM | LOX IMVI 52 µM | MOLT-4 22.1 µM | Malme-3M 27.8 µM | NCI-H226 72.6 µM | NCI-H460 > 100 µM | PC-3 43.2 µM | SF-268 20.8 µM | SN12C > 100 µM | SNB-19 35.9 µM | SNB-75 18.4 µM | SR 11.7 µM | SW-620 59 µM | UACC-257 75.7 µM

CC1=NN(C(=O)CSc2nnc(SCC(=O)N3N=C(C)CC3(O)c3ccccc3)s2)C(O)(c2ccccc2)C1 (configuration not stated)
inactive: A498 > 100 µM | A549 48.4 µM | DU-145 35.5 µM | HOP-92 33.7 µM | LOX IMVI 22.8 µM | MOLT-4 32.3 µM | Malme-3M 99.1 µM | NCI-H460 27.6 µM | NCI-H522 29.6 µM | PC-3 34.5 µM | SF-268 12.8 µM | SN12C 61.7 µM | SNB-19 60.4 µM | SR 23.3 µM | SW-620 > 100 µM | UACC-257 43.8 µM

N#Cc1c(-c2ccccc2)c(/C=N/c2cccc(C(F)(F)F)c2)c(=O)n2c1[nH]c1ccccc12
inactive: A498 34.4 µM | A549 23.6 µM | LOX IMVI 32.6 µM | Malme-3M 42.3 µM | NCI-H226 26.7 µM | NCI-H460 14.5 µM | NCI-H522 15.1 µM | PC-3 31 µM | SF-268 35.6 µM | SN12C 17.4 µM | SNB-19 30.5 µM | SNB-75 46 µM | SW-620 30.2 µM | T47D 35.2 µM | UACC-257 32.5 µM

COc1ccccc1N1C(=O)CSC1c1c[nH]c2ccccc12 (configuration not stated)
inactive: A498 > 100 µM | A549 > 100 µM | DU-145 > 100 µM | HOP-92 > 100 µM | HT-29 > 100 µM | MOLT-4 > 100 µM | NCI-H226 > 100 µM | NCI-H460 > 100 µM | SF-268 42.8 µM | SN12C > 100 µM | SNB-19 > 100 µM | SNB-75 27.6 µM | SW-620 > 100 µM | T47D > 100 µM | UACC-257 > 100 µM

Cc1cc(N(CCC#N)CCC#N)ccc1/C=C(\N=[N+]=[N-])C(=O)NC(=O)COc1ccccc1
inactive: A498 > 100 µM | A549 > 100 µM | HOP-92 > 100 µM | HT-29 > 100 µM | LOX IMVI > 100 µM | MOLT-4 > 100 µM | Malme-3M > 100 µM | NCI-H226 > 100 µM | NCI-H460 > 100 µM | NCI-H522 > 100 µM | SF-268 > 100 µM | SN12C > 100 µM | SNB-19 > 76.6 µM | SNB-75 > 44 µM | SR > 100 µM | SW-620 > 100 µM | UACC-257 > 100 µM

Cc1c2n(c3ccccc13)S(=O)(=O)c1ccccc1-2
inactive: A498 11 µM | A549 23.4 µM | DU-145 47.2 µM | HOP-92 30.2 µM | HT-29 15.4 µM | LOX IMVI 44.6 µM | MOLT-4 > 100 µM | Malme-3M 33.1 µM | NCI-H226 77.3 µM | NCI-H460 30.5 µM | NCI-H522 34.2 µM | PC-3 22.5 µM | SNB-19 19.8 µM | SR > 100 µM | SW-620 > 100 µM | UACC-257 > 100 µM

COC[C@@H](/N=C/c1ccc([N+](=O)[O-])cc1)C(C)C
inactive: A549 > 100 µM | DU-145 > 100 µM | HT-29 > 100 µM | LOX IMVI 52.7 µM | MOLT-4 42.2 µM | Malme-3M > 100 µM | NCI-H460 > 100 µM | NCI-H522 > 100 µM | PC-3 > 100 µM | SF-268 > 100 µM | SN12C > 100 µM | SNB-19 > 100 µM | SNB-75 > 100 µM | SR 92.7 µM | SW-620 > 100 µM | UACC-257 > 100 µM

S=c1nc(Nc2ccc(Cl)cc2)c2c3c(sc2[nH]1)CCCC3
inactive: A498 > 100 µM | DU-145 > 100 µM | HOP-92 76 µM | HT-29 > 100 µM | LOX IMVI > 100 µM | MOLT-4 64.7 µM | Malme-3M > 100 µM | NCI-H226 > 100 µM | NCI-H460 > 100 µM | NCI-H522 37 µM | PC-3 57.7 µM | SF-268 > 100 µM | SN12C > 100 µM | SNB-19 > 100 µM | SR > 100 µM | SW-620 > 100 µM | UACC-257 > 100 µM

CC(C)c1c(O[Si](C(C)C)(C(C)C)C(C)C)cc2c(c1O)CC[C@H]1C(C)(C)CCC[C@]21C
inactive: A498 > 100 µM | A549 > 100 µM | DU-145 > 100 µM | HOP-92 > 100 µM | HT-29 > 100 µM | LOX IMVI > 100 µM | MOLT-4 43.9 µM | Malme-3M > 100 µM | NCI-H226 > 100 µM | NCI-H460 > 100 µM | NCI-H522 47.2 µM | PC-3 > 100 µM | SF-268 > 100 µM | SN12C > 100 µM | SNB-19 > 100 µM | SNB-75 50.6 µM | SW-620 > 100 µM | UACC-257 > 100 µM
